This passage reports IC50 and melting point results from US8258175B2, “Isoindolin-1-one derivatives” (Cancer Research Technology Limited, priority 2004, dated 2012).

Broadly, the IC50 is the concentration that gives 50% inhibition. Higher therefore signals a need for much substance. The term melting point denotes the temperature, or range, at which the solid turns liquid.

A value given as a limit tells only on which side of the number the result lay.

T1 sequence (Q00987 whole entry): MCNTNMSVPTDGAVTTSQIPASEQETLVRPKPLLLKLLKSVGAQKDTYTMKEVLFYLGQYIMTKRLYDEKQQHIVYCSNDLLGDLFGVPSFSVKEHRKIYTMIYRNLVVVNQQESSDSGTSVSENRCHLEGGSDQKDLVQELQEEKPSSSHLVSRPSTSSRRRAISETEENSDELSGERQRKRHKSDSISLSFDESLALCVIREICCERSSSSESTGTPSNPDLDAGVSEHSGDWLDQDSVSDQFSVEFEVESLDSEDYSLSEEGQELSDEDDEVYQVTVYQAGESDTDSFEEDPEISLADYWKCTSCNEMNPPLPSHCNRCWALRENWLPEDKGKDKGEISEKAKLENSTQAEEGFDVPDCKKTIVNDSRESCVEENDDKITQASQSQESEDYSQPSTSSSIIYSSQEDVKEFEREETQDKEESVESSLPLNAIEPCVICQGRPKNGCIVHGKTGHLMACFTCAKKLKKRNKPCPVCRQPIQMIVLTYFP

The first data set addresses T1, MDM2-p53 interaction (Homo sapiens, UniProt Q00987).
T1 construct: made in house; host or cells: in vitro translation (cell-free)
The data set can be described thus: ELISA assay of MDM2-p53 complex formation (MDM2 binding to immobilised IP3 p53-derived peptide). Conditions: n=3 independent determinations; 5% DMSO; interpolated from three standard concentrations. As for the experimental part:
Streptavidin-coated 96-well plates are used to immobilise a biotin-tagged IP3 p53-derived peptide ([…]). This is a peptide analogue derived from the p53 binding site for MDM2 ([…]). […] Aliquots of MDM2 generated by in vitro translation are pre-incubated for 20 minutes at room temperature (i.e. 20-25° C.) with test compounds and controls, before transfer into the IP3-coated 96-well plates. Following a further incubation period of 90 minutes at 4° C., the plates are washed to remove unbound MDM2 and the residual bound MDM2 is detected using a primary monoclonal antibody (MDM2 Ab-1, clone IF2, Oncogene Research Products) and HRP-conjugated secondary antibody (Goat anti-mouse, Dako PO447). The HRP (horseradish peroxidase) is measured by a chemiluminescence reaction using standard reagents (Amersham Pharmacia™ RPN 2106) and an automatic injection 96-well plate illuminometer (EG & G Berthold Microplate LB 96V).
Compound NU8231 is currently included as a standard “lead compound” positive control. […] The AP peptide is included as a positive control for biological evaluation of the isoindolinones in the cell free binding assays.
All compounds are dissolved in DMSO and tested at three standard concentrations (initially 20 μM, 100 μM and 500 μM) in the presence of a fixed final concentration of 5% DMSO. The percentage inhibition of complex formation is expressed relative to a DMSO only control and an IC50, defined as the concentration required for 50% inhibition of MDM2-p53 complex formation, determined by interpolation.
For orientation: ELISA stands for enzyme-linked immunosorbent assay.
`CCCN1C(=O)c2ccccc2C1(OCCCO)c1ccccc1` (stereo not shown) [NU8033, 3-(3-Hydroxy-propoxy)-3-phenyl-2-propyl-2,3-dihydro-1H-isoindolin-1-one] registered an IC50 above 500000 nM.

Regarding `O=C1c2ccccc2C(OCCCO)(c2ccccc2)N1Cc1ccccc1` (stereo not shown) [NU8034, 2-Benzyl-3-(3-Hydroxy-propoxy)-3-phenyl-2,3-dihydro-1H-isoindolin-1-one], the IC50 is 245000 ± 11000 nM. Same read-out and setting: the figure for `CC(C)(C)c1ccc(COC2(c3ccccc3)c3ccccc3C(=O)N2Cc2ccccc2)cc1` (stereo not shown) [NU8113, 2-Benzyl-3-(4-tert-butyl-benzyloxy)-3-phenyl-2,3-dihydro-isoindolin-1-one] is 92000 ± 11000 nM; for `O=C1c2ccccc2C(OCCc2ccccn2)(c2ccccc2)N1Cc1ccccc1` (stereo not shown) [NU8133, 2-Benzyl-3-phenyl-3-(2-pyridin-2-yl-ethoxy)-2,3-dihydro-isoindolin-1-one] it is 206000 ± 130000 nM; for `CC(C)COc1ccc(C2(NC(=O)c3ccccc3)c3ccccc3C(=O)N2CC2CCCCC2)cc1` (stereo not shown) [NU8200, N-[2-Cyclohexylmethyl-1-(4-isobutoxyphenyl)-3-oxo-2,3-dihydro-1H-isoindolin-1-yl]benzamide] it is 123000 ± 30000 nM. `CCOc1ccc(C2(NC(=O)c3ccccc3)c3ccccc3C(=O)N2CC2CCCCC2)cc1` (stereo not shown) [NU8201, N-[2-Cyclohexylmethyl 1-(4-ethoxyphenyl)-3-oxo-2,3-dihydro-1H-isoindolin-1-yl]benzamide] had an IC50 of 209000 ± 28000 nM. The same measure, in the same setting: to `CSc1ccc(C2(NC(=O)c3ccccc3)c3ccccc3C(=O)N2CC2CCCCC2)cc1` (stereo not shown) [NU8202, N-[2-Cyclohexylmethyl-1-(4-methylsulfanylphenyl)-3-oxo-2,3-dihydro-1H-isoindolin-1-yl]benzamide] belongs 82000 ± 16000 nM; to `O=C1c2ccccc2C(OCCNc2ccccc2)(c2ccccc2)N1Cc1ccccc1` (stereo not shown) [NU8204, 2-Benzyl-3-phenyl-3-(2-phenylaminoethoxy)-2,3-dihydroisoindolin-1-one], 116000 ± 20000 nM; to `COc1cc(COC2(c3ccccc3)c3ccccc3C(=O)N2Cc2ccccc2)cc(OC)c1O` (stereo not shown) [NU8205, 2-Benzyl-3-(4-hydroxy-3,5-dimethoxybenzyloxy)-3-phenyl-2,3-dihydro-isoindolin-1-one], 17900 ± 300 nM. The same measure, in the same setting: to `CCCOC1(c2ccccc2)c2ccccc2C(=O)N1CCO` (stereo not shown) [NU8206, 2-(2-Hydroxyethyl)-3-phenyl-3-propoxy-2,3-dihydroisoindolin-1-one] belongs above 500000 nM. Still for that read-out and setting: the figure for `O=C1c2ccccc2C(OCCN2CCNCC2)(c2ccccc2)N1Cc1ccccc1` (stereo not shown) [NU8211, 2-Benzyl-3-phenyl-3-(2-piperazin-1-ylethoxy)-2,3-dihydroisoindolin-1-one] is 315000 ± 72000 nM; for `CC(=O)NCCN1C(=O)c2ccccc2C1(OCc1ccc(C(C)(C)C)cc1)c1ccccc1` (stereo not shown) [NU8213, N-{2-[1-(4-t-Butyl-benzyloxy)-3-oxo-1-phenyl-1,3-dihydro-isoindolin-2-yl]-ethyl}-acetamide] it is 14400 ± 300 nM; for `CC(C)(C)c1ccc(COC2(c3ccccc3)c3ccccc3C(=O)N2CCc2cnc[nH]2)cc1` (stereo not shown) [NU8214, 3-(4-t-Butylbenzyloxy)-2-[2-(3H-imidazol-4-yl)-ethyl]-3-phenyl-2,3-dihydroisoindolin-1-one] it is 214000 ± 56000 nM.

Consider `C=C(C)C(=O)OCCN1C(=O)c2ccccc2C1(NC(CO)C(O)c1ccccc1)c1ccccc1` (stereo not shown) [NU8216, 2-Methylacrylic acid 2-[1-(2-hydroxy-1-hydroxymethyl-2-phenylethylamino)-3-oxo-1-phenyl-1,3-dihydroisoindolin-2-yl]ethyl ester], for which the IC50 was determined as 103000 ± 43000 nM. `COc1ccc(COC2(c3ccccc3)c3ccccc3C(=O)N2Cc2ccccc2)cc1` (stereo not shown) [NU8226, 2-Benzyl-3-(4-methoxybenzyloxy)-3-phenyl-2,3-dihydroisoindolin-1-one] registered a half-maximal inhibitory concentration (IC50) of 456000 ± 44000 nM.

The compound `C=CCOc1c(OC)cc(COC2(c3ccc(Cl)cc3)c3ccccc3C(=O)N2CCC)cc1OC` (stereo not shown) [NU8232, 3-(4-Allyloxy-3,5-dimethoxybenzyloxy)-3-(4-chlorophenyl)-2-propyl-2,3-dihydroisoindolin-1-one] gave an IC50 of 264000 ± 38000 nM. On the same count and under the same terms, to `CCCN1C(=O)c2ccccc2C1(OCc1ccc(C(C)(C)C)cc1)c1ccc(OCOCC[Si](C)(C)C)cc1` (stereo not shown) [NU8233, 3-(4-tert-Butylbenzyloxy)-2-propyl-3-[4-(2-trimethylsilanylethoxymethoxy)-phenyl]-2,3-dihydroisoindolin-1-one] belongs 464000 ± 31000 nM; to `CCCN1C(=O)c2ccccc2C1(OCCCO)c1ccc(OCOCC[Si](C)(C)C)cc1` (stereo not shown) [NU8234, 3-(3-Hydroxypropoxy)-2-propyl-3-[4-(2-trimethylsilanylethoxymethoxy)-phenyl]-2,3-dihydroisoindolin-1-one], 476000 ± 24000 nM. The compound `CCCN1C(=O)c2ccccc2C1(OCCc1ccccn1)c1ccc(OCOCC[Si](C)(C)C)cc1` (stereo not shown) [NU8235, 2-Propyl-3-(2-pyridin-2-yl-ethoxy)-3-[4-(2-trimethylsilanylethoxymethoxy)-phenyl]-2,3-dihydroisoindolin-1-one] yielded an IC50 of 312000 ± 22000 nM.

With `CCCN1C(=O)c2ccccc2C1(OCc1cc(OC)c(O)c(OC)c1)c1ccc(OCOCC[Si](C)(C)C)cc1` (stereo not shown) [NU8236, 3-(4-Hydroxy-3,5-dimethoxybenzyloxy)-2-propyl-3-[4-(2-trimethylsilanylethoxy-methoxy)-phenyl]-2,3-dihydroisoindolin-1-one], the IC50 was 118000 ± 24000 nM. Still for that read-out and setting: the figure for `CCCN1C(=O)c2ccccc2C1(OCc1ccccc1)c1ccc(Cl)cc1` (stereo not shown) [NU8237, 3-Benzyloxy-3-(4-chlorophenyl)-2-propyl-2,3-dihydroisoindolin-1-one] is 409000 ± 43000 nM; for `COc1cc(COC2(c3ccc(OCOCC[Si](C)(C)C)cc3)c3ccccc3C(=O)N2Cc2ccccc2)cc(OC)c1O` (stereo not shown) [NU8238, 2-Benzyl-3-(4-hydroxy-3,5-dimethoxybenzyloxy)-3-[4-(2-trimethylsilanylethoxy-methoxy)phenyl]-2,3-dihydroisoindolin-1-one] it is 257000 ± 34000 nM; for `C[Si](C)(C)CCOCOc1ccc(C2(O)c3ccccc3C(=O)N2Cc2ccccc2)cc1` (stereo not shown) [NU8239, 2-Benzyl-3-hydroxy-3-[4-(2-trimethylsilanylethoxymethoxy)phenyl]-2,3-dihydroisoindol-1-one] it is 366000 ± 61000 nM. The same measure, in the same setting: the figure for `C=CCOc1ccc(COC2(c3ccc(Cl)cc3)c3ccccc3C(=O)N2CCC)cc1` (stereo not shown) [NU8240] is 304000 ± 42000 nM; for `C=CCOc1cc(COC2(c3ccc(Cl)cc3)c3ccccc3C(=O)N2CCC)ccc1OC` (stereo not shown) [NU8241, 3-(4-chlorophenyl)-3-(3-allyloxy-4-methoxy-benzyloxy)-2-propyl-2,3-dihydroisoindolin-1-one] it is 83000 ± 5000 nM. Still for that read-out and setting: the figure for `C=CCOc1ccc(COC2(c3ccc(Cl)cc3)c3ccccc3C(=O)N2CCC)cc1OC` (stereo not shown) [NU8242, 3-(4-chlorophenyl)-3-(4-allyloxy-3-methoxy-benzyloxy)-2-propyl-2,3-dihydroisoindolin-1-one] is 272000 ± 5000 nM; for `CCCN1C(=O)c2ccccc2C1(OCc1ccc(O)cc1)c1ccc(Cl)cc1` (stereo not shown) [NU8243] it is 7700 ± 300 nM; for `CCCN1C(=O)c2ccccc2C1(OCc1ccc(OC)c(O)c1)c1ccc(Cl)cc1` (stereo not shown) [NU8244] it is 9500 ± 1900 nM. As for `C#CCN1C(=O)c2ccccc2C1(OCc1cc(OC)c(O)c(OC)c1)c1ccc(Cl)cc1` (stereo not shown) [NU8245, 3-(4-Chlorophenyl)-3-(4-hydroxy-3,5-dimethoxybenzyloxy)-2-prop-2-ynyl-2,3-dihydroisoindolin-1-one], the concentration for half-maximal inhibition (IC50) was found to be 23000 ± 4000 nM.

With `CCCN1C(=O)c2ccccc2C1(OC1CCC(O)C1)c1ccc(Cl)cc1` (stereo not shown) [NU8253, 3-(4-Chlorophenyl)-3-(3-hydroxycyclopentyloxy)-2-propylisoindolin-1-one], the IC50 was 3000 ± 700 nM. Still for that read-out and setting: the figure for `O=C1c2ccccc2C(OC2CCC(O)C2)(c2ccc(Cl)cc2)N1CCc1ccccc1` (stereo not shown) [NU8257, 3-(4-Chlorophenyl)-3-(3-hydroxycyclopentyloxy)-2-phenethylisoindolin-1-one] is 5500 ± 1700 nM. For the compound `O=C1c2ccccc2C(O)(c2ccc(Cl)cc2)N1CC1CC1` (stereo not shown) [NU8265, 3-(4-Chlorophenyl)-2-cyclopropylmethyl-3-hydroxy-2,3-dihydroisoindolin-1-one], the IC50 is above 20000 nM.

In turn, `O=C1c2ccccc2C(OC2CCC(O)C2)(c2ccc(Cl)cc2)N1Cc1ccc(Cl)cc1` (stereo not shown) [NU8274, 2-(4-Chlorobenzyl)-3-(4-chlorophenyl)-3-(3-hydroxycyclopentyloxy)isoindolin-1-one] had a half-maximal inhibitory concentration (IC50) of 2400 ± 700 nM. In turn, `O=C1c2ccccc2C(OC2CCC(O)C2)(c2ccc(Cl)cc2)N1CC1CC1` (stereo not shown) [NU8280, 3-(4-Chlorophenyl)-2-cyclopropylmethyl-3-(3-hydroxycyclopentyloxy)-2,3-dihydro-isoindolin-1-one] came in with an IC50 of 15400 ± 2300 nM.

The data set is the same for the next values; noted with them: nM.
For the compound `O=C1c2ccccc2C(OC2CCC(O)C2)(c2ccc(Cl)cc2)N1Cc1ccc([N+](=O)[O-])cc1` (stereo not shown) [NU8261, 3-(4-Chlorophenyl)-3-(3-hydroxycyclopentyloxy)-2-(4-nitrobenzyl)-2,3-dihydroisoindolin-1-one], the IC50 turned out to be 700 nM.

Test system in the next data set: not given
Assay: not given
Settings: not given
Consider `CC(C)(C)c1ccc(COC2(c3ccccc3)c3ccccc3C(=O)N2Cc2ccccc2)cc1` (stereo not shown) [NU8113, 2-Benzyl-3-(4-tert-butyl-benzyloxy)-3-phenyl-2,3-dihydro-isoindolin-1-one], for which the melting point fell in the range of 107 to 108 °C. Same read-out and setting: the figure for `CCCN1C(=O)c2ccccc2C1(OCCc1ccccn1)c1ccccc1` (stereo not shown) [NU8224, 3-Phenyl-2-propyl-3-(2-pyridin-2-yl-ethoxy)-2,3-dihydroisoindolin-1-one] is 122.3 to 124.1 °C.
